Results on 35 compounds are retold here after patent publication US8158372B2, “Agonists of a bitter taste receptor and uses thereof” (Deutsches Institut für Ernährungsforschung Potsdam-Rehbrücke, priority 2004, dated 2012).

For test [1], the target named is T1, hTAS2R14 (Homo sapiens, UniProt Q9NYV8).
T1 sequence (Q9NYV8 1-317): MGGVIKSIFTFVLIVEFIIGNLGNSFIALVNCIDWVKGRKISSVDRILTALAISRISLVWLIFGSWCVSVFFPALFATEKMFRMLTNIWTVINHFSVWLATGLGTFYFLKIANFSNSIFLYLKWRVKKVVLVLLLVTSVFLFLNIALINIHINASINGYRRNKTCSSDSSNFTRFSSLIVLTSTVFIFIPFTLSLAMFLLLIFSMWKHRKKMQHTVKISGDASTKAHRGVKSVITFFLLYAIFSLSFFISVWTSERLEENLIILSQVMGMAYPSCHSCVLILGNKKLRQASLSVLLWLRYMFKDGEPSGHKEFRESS

In test [2] the target is T2, mTAS2R5 (Mus musculus, UniProt Q9JKT4).
T2 sequence (Q9JKT4 1-300): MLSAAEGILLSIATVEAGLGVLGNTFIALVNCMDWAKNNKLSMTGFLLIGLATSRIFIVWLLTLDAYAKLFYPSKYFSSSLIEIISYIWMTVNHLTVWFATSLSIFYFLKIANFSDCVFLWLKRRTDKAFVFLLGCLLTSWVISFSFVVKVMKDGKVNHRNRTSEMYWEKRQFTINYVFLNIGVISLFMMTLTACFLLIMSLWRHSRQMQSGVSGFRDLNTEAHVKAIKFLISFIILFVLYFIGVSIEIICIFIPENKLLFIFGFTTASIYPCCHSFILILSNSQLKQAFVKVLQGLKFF
To be noted: Chandrashekar et al. 2000; cited from earlier work.

The target of test [3] is T3, rTAS2R9 (Rattus norvegicus, UniProt Q9JKT5).
T3 sequence (Q9JKT5 1-309): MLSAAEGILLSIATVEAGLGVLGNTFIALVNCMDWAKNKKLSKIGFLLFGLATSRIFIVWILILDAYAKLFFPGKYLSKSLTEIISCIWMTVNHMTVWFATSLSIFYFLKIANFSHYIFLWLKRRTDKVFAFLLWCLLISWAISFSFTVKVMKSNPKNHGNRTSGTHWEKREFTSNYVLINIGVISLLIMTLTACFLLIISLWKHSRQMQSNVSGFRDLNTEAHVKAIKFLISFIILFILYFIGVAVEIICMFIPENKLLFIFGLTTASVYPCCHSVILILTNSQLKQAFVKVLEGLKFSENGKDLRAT
The note with it: Bufe et al. 2002; cited from earlier work.

Test [4] concerns the target T4, hTAS2R4 (Homo sapiens, UniProt Q9NYW5).
T4 sequence (Q9NYW5 1-299): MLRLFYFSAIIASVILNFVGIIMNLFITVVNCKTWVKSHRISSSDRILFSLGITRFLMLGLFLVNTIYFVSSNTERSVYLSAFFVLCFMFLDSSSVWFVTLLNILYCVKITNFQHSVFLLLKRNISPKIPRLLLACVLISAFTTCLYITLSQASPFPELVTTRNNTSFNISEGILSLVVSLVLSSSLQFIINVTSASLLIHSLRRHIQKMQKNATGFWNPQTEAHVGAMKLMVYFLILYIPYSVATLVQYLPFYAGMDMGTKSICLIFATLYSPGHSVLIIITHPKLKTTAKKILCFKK
The note with it: denatonium at high doses; Chandrashekar et al. 2000; cited from earlier work.

Test [5] addresses T5, mTAS2R8 (Mus musculus, UniProt Q9JKT3).
T5 sequence (Q9JKT3 1-297): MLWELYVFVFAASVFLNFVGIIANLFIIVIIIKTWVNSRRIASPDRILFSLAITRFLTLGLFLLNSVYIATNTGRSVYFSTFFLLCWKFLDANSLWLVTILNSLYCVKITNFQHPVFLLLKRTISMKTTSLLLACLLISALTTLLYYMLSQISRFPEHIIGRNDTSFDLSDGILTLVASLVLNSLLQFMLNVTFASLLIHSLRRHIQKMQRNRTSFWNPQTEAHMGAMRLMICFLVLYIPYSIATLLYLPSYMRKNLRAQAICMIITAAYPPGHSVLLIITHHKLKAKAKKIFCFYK
The note with it: denatonium at high doses; Chandrashekar et al. 2000; cited from earlier work.

Where [6] appears, read: increase of intracellular calcium (fluorescence) in hTAS2R14 transfected cells, traces only shown as drawings, Table 1 A.

Structures can show the parent of a compound that is named as a salt. Where two headings read alike, the source gives them in different places.

As for `O=C(c1ccccc1)C(O)c1ccccc1` (stereo not drawn) [benzoin], the response entry in test [1] is given as “n.r”.
On the same count and under the same terms, the entry for ouabain is “n.r”.
For `c1ccc2c(c1)CCc1ccccc1-2` [9,10-dihydrophenanthrene], the response result in test [1] (conc 5 μM) was “n.r”.
On to `CCN(CCCc1ccccc1)CCCc1ccccc1.O=C(O)CC(O)(CC(=O)O)C(=O)O` [alverine citrate salt], for which the response result in test [1] (conc 50 μM) is on record as “n.r”.
`CC(C)(O)[C@@H]1[C@H]2OC(=O)[C@@H]1[C@]1(O)C[C@H]3O[C@]34C(=O)O[C@H]2[C@]14C` [picrotin]: the “activation of hTAS2R14 (agonist)” value in test [1] is on record as “agonist”.
Turning to `C1CCN2C[C@H]3CC(CN4CCCC[C@@H]34)[C@H]2C1` (single isomer, unassigned; (-)) [(−)-sparteine], the response result in test [1] is reported as “n.r”.
In the case of (−)-α-thujone, the “activation of hTAS2R14 (agonist)” value in test [1] is “agonist”.
On to strychnine nitrate, for which, in test [1], the response result is listed as “n.r”.
For `C[C@@H]1C[C@@H]([C@H](O)CC2CC(=O)NC(=O)C2)C(=O)[C@@H](C)C1` [cycloheximide], the receptor response result in test [2] and in test [3] was “respond” in each case. In test [1], the response entry is listed as “n.r”.
For the compound `CN1CCCC1c1cccnc1` (single isomer, unassigned; (-)) [(−)-nicotine], the response entry in test [1] (conc 10 μM) is listed as “n.r”.
For the compound `Cn1c(=O)c2c(ncn2C)n(C)c1=O` [caffeine], in test [1] (conc 3000 μM), the response entry is “n.r”.
For `C=C(C)[C@@H]1[C@H]2OC(=O)[C@@H]1[C@]1(O)C[C@H]3O[C@]34C(=O)O[C@H]2[C@]14C` [picrotoxinin], the “activation of hTAS2R14 (agonist)” value in test [1] was “agonist”.
With `N[C@H](Cc1ccccc1)C(=O)O` [D-phenylalanine], the response entry in test [1] (conc 10000 μM) is “n.r”.
Take `Cc1cc(=O)n(-c2ccccc2)n1C` [antipyrine]: in test [1], the response entry is “n.r”.
On to `CCCc1cc(=O)[nH]c(=S)[nH]1` [6-propyl-2-thiouracil (PROP), 6-propyl-2-thiouracil], for which the response entry in test [1] (conc 100 μM) was “n.r”. Moreover, in test [4], the receptor response entry is “to a lesser extend”.
Consider `O=C(O)c1ccc2c(c1)OCO2` [piperonylic acid], for which, in test [1], the “activation of hTAS2R14 (agonist)” value is reported as “agonist”.
Turning to `CN1C2CCC1CC(OC(=O)C(CO)c1ccccc1)C2` (stereo not drawn) [atropine], in test [1], the response entry is listed as “n.r”.
Take `O=C(O)/C=C/c1ccc(O)c(O)c1` [caffeic acid]: the response result in test [1] (conc 30 μM) is “n.r”.
Turning to `O=Cc1cccc2cccc(C(=O)O)c12` [1,8-naphthaldehydic acid], the “activation of hTAS2R14 (agonist)” value in test [1] (setting [6]) is given as “agonist”.
Still for that read-out and setting: the entry for `CC(=O)OC1C[C@H]2[C@H](C)C(=O)O[C@@H]2/C=C(\C)CC/C=C/1C` (stereo partly drawn) [herbolide A] is “agonist”.
For the compound `COc1cc2c(c(OC)c1OC)-c1ccc(OC)c(=O)cc1[C@@H](NC(C)=O)CC2` [colchicine], in test [1], the response result is “n.r”.
Take `C=C1C(=O)O[C@H]2[C@H]1CC/C(C)=C/CC[C@@]1(C)O[C@@H]21` [parthenolide]: the “activation of hTAS2R14 (agonist)” value in test [1] (setting [6]) is listed as “agonist”.
`O=C([O-])c1cc(=O)c2c(OCC(O)COc3cccc4oc(C(=O)[O-])cc(=O)c34)cccc2o1.[Na+].[Na+]` [cromolyn sodium salt]: in test [1] (conc 5000 μM), the response result is recorded as “n.r”.
Take `O=C([O-])c1ccccc1.[Na+]` [sodium benzoate]: the “activation of hTAS2R14 (agonist)” value in test [1] was “agonist”.
With `NC(=S)Nc1ccccc1` [phenylthiocarbamide (PTC), phenylthiocarbamide], the response result in test [1] is recorded as “n.r”.
As to `CC[N+](CC)(CC(=O)Nc1c(C)cccc1C)Cc1ccccc1` [denatonium], the receptor response entry in test [5] and in test [4] was “respond” in each case.
Turning to `N[C@@H](Cc1ccccc1)C(=O)O` [L-phenylalanine], the response entry in test [1] (conc 10000 μM) is recorded as “n.r”.
For the compound `O=C(N[C@H](CO)[C@H](O)c1ccc([N+](=O)[O-])cc1)C(Cl)Cl` [chloramphenicol], the response entry in test [1] (conc 30 μM) was “n.r”.
Take `CCCC(C)(COC(N)=O)COC(=O)NC(C)C` (stereo not drawn) [carisoprodol]: the response entry in test [1] is “n.r”.
For `C=C[C@H]1CN2CC[C@H]1C[C@H]2[C@H](O)c1ccnc2ccc(OC)cc12` [quinine sulfate dihydrate], the response entry in test [1] (conc 50 μM) is given as “n.r”.
For the compound `CC1CCC2[C@@H]1C1CC(O)[C@H](C)C1CC[C@@]2(C)O` (stereo partly drawn) [pseudo-artabsine], the “activation of hTAS2R14 (agonist)” value in test [1] (setting [6]) is on record as “agonist”.
`O=[N+]([O-])c1cccc2ccccc12` [1-nitronaphthalene]: in test [1], the “activation of hTAS2R14 (agonist)” value was “agonist”.
For the compound `C=C1C(=O)OC2C3O[C@]3(C)CC/C=C(\C)CC(O)[C@@H]12` (stereo partly drawn) [hydroxy-8α-parthenolide], the “activation of hTAS2R14 (agonist)” value in test [1] (setting [6]) is reported as “agonist”.
Same read-out and setting: the entry for `O=C(O)c1cccc2ccccc12` [1-naphthoic acid] is “agonist”; for `C=C1C(OC(C)=O)CC/C(C)=C/[C@H]2OC(=O)[C@@H](C)[C@@H]2CC1OC(C)=O` (stereo partly drawn) [herbolide D acetate] it is “agonist”.
